Measured values: patent publication US9492428B2, “Compounds, compositions, pharmaceutical compositions, and methods of use” (University of Louisville Research Foundation, Inc., priority 2011, dated 2016)
Converted amounts (≈) assume the structure as drawn.

What was measured:
RWPE-1 cells = experiment: MTT assay (cytotoxicity) in RWPE-1; format: cell-based; conditions: Homo sapiens, FIG. 4, read-out: GI50 against RWPE-1
Source text: (§1) FIG. 4. Bioassay of compound I-1, compound I-2, and compound I-3. SPA14-3-2 is pure compound I-2. SPA14-3-3 is pure compound I-3. SPA14-3-4 is pure compound I-1. MTT assays using compound I-1, compound I-2, and compound I-3 against DU145 and RWPE-1 cells lines.
(§2) Isolation, NMR, and X-ray crystallographic analyses. Leaves, stems, and few fruits of Physalis angulate L (Solanaceae) were collected in Rio Domingusa. Kuith/Barranquita, Amazonas Department, Northeastern Peru, and identified by the team led by Walter Lewis (collection voucher 18597, Ext. 1159). Dried and grounded material (46 g) was extracted with ethanol (1 L, 95%) for 7 days. The evaporated crude extract (6.26 g) was denoted SPA. An aliquot (1.5 g) of SPA was partitioned between dichloromethane (40 mL) and water (40 mL), affording two fractions: organic (SPA1, 500 mg) and aqueous (SPA2, 600 mg). All MTT assays were performed as described in Bates et al. “G-Rich Oligonucleotides for Cancer Treatment” Chapter 21 of Methods in Molecular Biology, Gene Therapy of Cancer, Wolfgang Walther and Ulrike S. Stein (eds.), Vol. 542, 2009, Humana Press. […] SPA14-3 (30 mg) was treated on an HPLC using a reverse phase C18 column eluted in gradient mode of methanol and water (from 80% methanol to 100% methanol) and detected at 254 nm, yielding SPA14-3-1 (0 mg), SPA14-3-2 (1.2 mg of pure compound I-2), SPA14-3-3 (4.1 mg of pure compound I-3), and SPA14-3-4 (18 mg of pure compound I-1).
General Experimental Procedure. Compound I-1 was isolated as described in Example Set 1, above. For samples of compound I-1 used in Example Set 2, HPLC and NMR indicated a purity of at least 95%. All experiments described in Example Set 2 were repeated at least two or three times. All MTT assays were performed according to Bates et al. “G-Rich Oligonucleotides for Cancer Treatment” Chapter 21 of Methods in Molecular Biology, Gene Therapy of Cancer, Wolfgang Walther and Ulrike S. Stein (eds.), Vol. 542, 2009, Humana Press.

DU145 cells = experiment: MTT assay (cytotoxicity / cell proliferation) in DU145; format: cell-based, human
Method: as §1
FIG. 8. Cell proliferation assay. (A) DU145 or PC3 prostate cancer were plated at a density of 1,500 cells per well in 96-well plates and incubated 18 hours at 37° C. to allow adherence. They were untreated or treated by addition of different concentrations of compound I-1 (which were added directly to the medium) or vehicle (DMSO), and proliferation was measured using a 3-(4,5-dimethylthiazol-2-yl)-2,5-diphenyltetrazolium bromide MTT assay after 3 days of treatment. Points, mean of triplicate normalized samples to vehicle sample; bars, SE. (B) GI50 after 3 days of treatment. (C) Prostate cancer cells (DU145 or PC3) or a non-malignant epithelial cells (RWPE-1) were plated at a density of 1,000 cells per well in 96-well plates and incubated 18 hours at 37° C. to allow adherence. They were untreated or treated by addition of different concentrations of compound I-1 (added directly to the medium) or vehicle (DMSO), and proliferation was by MTT assay after 5 days of treatment. Points, mean of triplicate normalized samples to vehicle sample; bars, SE.
as §2
General Experimental Procedure. Compound I-1 was isolated as described in Example Set 1, above. For samples of compound I-1 used in Example Set 2, HPLC and NMR indicated a purity of at least 95%. All experiments described in Example Set 2 were repeated at least two or three times. […]

**Q.** How did the GI50 (RWPE-1 cells) turn out when C[C@@H]1CC[C@H]2C3C(O[C@]4([C@]5(O)CC6(C)C(=O)OC5C[C@@]6(C)O)CC[C@@]31O4)[C@H]1O[C@]13CC=CC(=O)[C@]23C (stereo partly drawn) [I-1] was run?
**A.** The GI50 was ~1.2 µg/mL (≈ 2.4 µM).

**Q.** What about the GI50 (DU145 cells; Homo sapiens, DU-145, MTT assay, FIG. 4, read-out: GI50 against DU145) of the same molecule?
**A.** Its GI50 is ~1.5 µg/mL (≈ 3 µM).

**Q.** What about the “concentration of maximum antiproliferative activity” value (DU145 cells; after three days of treatment) of the same molecule?
**A.** Its value is 10 µM.
